The source made the active and inactive calls. Rule as the data show it: actives have a measured IC50 and inactives only a lower limit.
target: Envelope glycoprotein gp160 (Human immunodeficiency virus 1, UniProt Q6QLK5); assay: inhibitors of HIV fusion peptide binding, primary screen, biochemical, uHTS, fluorescence dequenching (AID 1986)
Sequence (Q6QLK5 whole entry, the tested form may be a part): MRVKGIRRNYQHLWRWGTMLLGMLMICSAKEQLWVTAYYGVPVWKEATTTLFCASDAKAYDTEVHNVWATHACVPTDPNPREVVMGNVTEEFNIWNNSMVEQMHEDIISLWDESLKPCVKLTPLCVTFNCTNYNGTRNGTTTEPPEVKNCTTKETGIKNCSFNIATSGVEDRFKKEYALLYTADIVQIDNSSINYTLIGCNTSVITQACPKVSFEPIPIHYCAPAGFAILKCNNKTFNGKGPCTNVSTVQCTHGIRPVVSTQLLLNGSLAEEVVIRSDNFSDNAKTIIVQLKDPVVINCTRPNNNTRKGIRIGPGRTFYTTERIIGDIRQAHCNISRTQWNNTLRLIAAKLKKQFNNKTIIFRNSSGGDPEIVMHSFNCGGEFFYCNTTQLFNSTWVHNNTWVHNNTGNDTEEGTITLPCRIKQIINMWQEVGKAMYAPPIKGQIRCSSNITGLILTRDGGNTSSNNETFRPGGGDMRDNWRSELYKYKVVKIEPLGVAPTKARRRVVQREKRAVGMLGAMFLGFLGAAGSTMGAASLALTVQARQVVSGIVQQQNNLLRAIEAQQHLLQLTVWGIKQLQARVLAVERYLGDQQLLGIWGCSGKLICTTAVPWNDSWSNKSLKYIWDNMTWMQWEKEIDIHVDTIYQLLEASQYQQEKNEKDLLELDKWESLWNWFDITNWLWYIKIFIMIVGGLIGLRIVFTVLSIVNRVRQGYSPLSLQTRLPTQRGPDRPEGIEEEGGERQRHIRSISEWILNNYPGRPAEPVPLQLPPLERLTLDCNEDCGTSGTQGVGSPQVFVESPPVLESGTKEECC

SMILES	IC50
CCOc1cc(/C=C2\C(=N)N3N=C(S(C)(=O)=O)SC3=NC2=O)ccc1OCCOc1cccc(OC)c1	12 µM (active)
COc1cc(/C=C2/SC(=S)N(Cc3ccccc3)C2=O)ccc1OCC(=O)O	17.3 µM (active)
O=[N+]([O-])c1cc([N+](=O)[O-])c2oc(-c3ccccc3)c(Br)c2c1O	8.02 µM (active)
